According to ChEMBL document CHEMBL3885861, “Open TG-GATES”:

Organism: Rattus norvegicus
Assay: Open TG-GATES - Regimen: Daily Repeat
Assay type: toxicity, organism-based, Sprague-Dawley
Parameters: regimen Daily Repeat, gender Male, age 6 weeks
Conditions: in vivo, po, route gavage; for gamma-GTP / ALP / ALT / AST / BUN / CRE / Ca / Cl / DBIL / GLC / IP / K / LDH / Na / PL / RALB / TBIL / TC / TG / TP: tissue Plasma; for APTT / Bas / Eos / Fbg / Hb / Ht / Lym / MCH / MCHC / MCV / Mono / Neu / PT / Plat / RBC / Ret / WBC: tissue Blood; for KIDNEY_L / KIDNEY_R / KIDNEY_TOTAL: tissue Kidney; for LIVER: tissue Liver
[1] = 300 mg/kg, 72 h, dose level Middle, time 3 day
[2] = 300 mg/kg, […], dose level Middle, time 7 day
[3] = 300 mg/kg, […], dose level Middle, time 14 day
[4] = 300 mg/kg, […], dose level Middle, time 28 day
[5] = 1000 mg/kg, 72 h, dose level High, time 3 day
[6] = 1000 mg/kg, […], dose level High, time 7 day
[7] = 1000 mg/kg, […], dose level High, time 14 day
[8] = 1000 mg/kg, […], dose level High, time 28 day

COC(=O)C1=C(C)NC(C)=C(C(=O)OC)C1c1ccccc1[N+](=O)[O-] [NIFEDIPINE]
gamma-GTP (100 mg/kg, […], dose level Low, time 28 day): 1 IU/L
TERMINAL_BW [1]: 223.2 g
APTT [1]: 18.7 s
Bas [1]: 0.4%
Eos [1]: 1%
Fbg [1]: 277 mg/dL
Hb [1]: 13.5 g/dL
Ht [1]: 41.7%
Lym [1]: 73%
MCH [1]: 21.3 pg
MCHC [1]: 32.3%
MCV [1]: 66.1 fL
Mono [1]: 3.6%
Neu [1]: 21%
PT [1]: 13.8 s
Plat [1]: 123.7 x10_4/uL
RBC [1]: 630.8 x10_4/ul
Ret [1]: 10.7%
WBC [1]: 113.4 x10_2/uL
KIDNEY_L [1]: 0.9 g
KIDNEY_R [1]: 0.9 g
KIDNEY_TOTAL [1]: 1.9 g
LIVER [1]: 11.7 g
ALP [1]: 1580.8 IU/L
ALT [1]: 48.2 IU/L
AST [1]: 68.4 IU/L
BUN [1]: 14.2 mg/dL
CRE [1]: 0.2 mg/dL
Ca [1]: 10.9 mg/dL
Cl [1]: 107.2 meq/L
DBIL [1]: 0.018 mg/dL
GLC [1]: 165.8 mg/dL
IP [1]: 7.1 mg/dL
K [1]: 4 meq/L
LDH [1]: 84.2 IU/L
Na [1]: 144.4 meq/L
PL [1]: 159.2 mg/dL
RALB [1]: 2.6 g/dL
TBIL [1]: 0.03 mg/dL
TC [1]: 89.4 mg/dL
TG [1]: 94.2 mg/dL
TP [1]: 5.6 g/dL
gamma-GTP [1]: 1 IU/L
TERMINAL_BW [2]: 254 g
TERMINAL_BW [3]: 319.9 g
TERMINAL_BW [4]: 380.8 g
APTT [2]: 15.7 s
Bas [2]: 0.2%
Eos [2]: 1%
Fbg [2]: 292.6 mg/dL
Hb [2]: 13.9 g/dL
Ht [2]: 42.7%
Lym [2]: 69.4%
MCH [2]: 20.7 pg
MCHC [2]: 32.6%
MCV [2]: 63.6 fL
Mono [2]: 3%
Neu [2]: 26%
PT [2]: 13.6 s
Plat [2]: 128.9 x10_4/uL
RBC [2]: 671 x10_4/ul
Ret [2]: 6.2%
WBC [2]: 113.1 x10_2/uL
APTT [3]: 19 s
Bas [3]: 0%
Eos [3]: 1%
Fbg [3]: 281.4 mg/dL
Hb [3]: 14.8 g/dL
Ht [3]: 44.7%
Lym [3]: 74.8%
MCH [3]: 20.6 pg
MCHC [3]: 33.2%
MCV [3]: 62.1 fL
Mono [3]: 3%
Neu [3]: 20%
PT [3]: 14 s
Plat [3]: 117.6 x10_4/uL
RBC [3]: 719 x10_4/ul
Ret [3]: 4.9%
WBC [3]: 97.5 x10_2/uL
APTT [4]: 18.7 s
Bas [4]: 0.4%
Eos [4]: 1%
Fbg [4]: 277 mg/dL
Hb [4]: 13.5 g/dL
Ht [4]: 41.7%
Lym [4]: 73%
MCH [4]: 21.3 pg
MCHC [4]: 32.3%
MCV [4]: 66.1 fL
Mono [4]: 3.6%
Neu [4]: 21%
PT [4]: 13.8 s
Plat [4]: 123.7 x10_4/uL
RBC [4]: 630.8 x10_4/ul
Ret [4]: 10.7%
WBC [4]: 113.4 x10_2/uL
KIDNEY_L [2]: 1 g
KIDNEY_R [2]: 1 g
KIDNEY_TOTAL [2]: 2 g
KIDNEY_L [3]: 1.2 g
KIDNEY_R [3]: 1.2 g
KIDNEY_TOTAL [3]: 2.3 g
KIDNEY_L [4]: 1.3 g
KIDNEY_R [4]: 1.2 g
KIDNEY_TOTAL [4]: 2.5 g
LIVER [2]: 12.8 g
LIVER [3]: 14.9 g
LIVER [4]: 15.8 g
ALP [2]: 1439.4 IU/L
ALT [2]: 43.8 IU/L
AST [2]: 68.6 IU/L
BUN [2]: 15.4 mg/dL
CRE [2]: 0.2 mg/dL
Ca [2]: 10.8 mg/dL
Cl [2]: 107.6 meq/L
DBIL [2]: 0.012 mg/dL
GLC [2]: 167 mg/dL
IP [2]: 7 mg/dL
K [2]: 3.9 meq/L
Na [2]: 145.6 meq/L
PL [2]: 154.4 mg/dL
RALB [2]: 2.8 g/dL
TBIL [2]: 0.022 mg/dL
TC [2]: 83.4 mg/dL
TG [2]: 102 mg/dL
TP [2]: 5.9 g/dL
gamma-GTP [2]: 1 IU/L
ALP [3]: 1236.4 IU/L
ALT [3]: 47.6 IU/L
AST [3]: 69.4 IU/L
BUN [3]: 18.2 mg/dL
CRE [3]: 0.2 mg/dL
Ca [3]: 10.9 mg/dL
Cl [3]: 107.6 meq/L
DBIL [3]: 0.012 mg/dL
GLC [3]: 172.6 mg/dL
IP [3]: 7 mg/dL
K [3]: 4.2 meq/L
LDH [3]: 48 IU/L
Na [3]: 143.8 meq/L
PL [3]: 150 mg/dL
RALB [3]: 2.7 g/dL
TBIL [3]: 0.018 mg/dL
TC [3]: 79.6 mg/dL
TG [3]: 115.8 mg/dL
TP [3]: 5.8 g/dL
gamma-GTP [3]: 1 IU/L
ALP [4]: 1129.6 IU/L
ALT [4]: 40 IU/L
AST [4]: 73.8 IU/L
BUN [4]: 17.8 mg/dL
CRE [4]: 0.3 mg/dL
Ca [4]: 10.3 mg/dL
Cl [4]: 106.6 meq/L
DBIL [4]: 0.012 mg/dL
GLC [4]: 165 mg/dL
IP [4]: 5.7 mg/dL
K [4]: 3.8 meq/L
LDH [4]: 56.2 IU/L
Na [4]: 143.8 meq/L
PL [4]: 146 mg/dL
RALB [4]: 2.7 g/dL
TBIL [4]: 0.026 mg/dL
TC [4]: 73 mg/dL
TG [4]: 126.8 mg/dL
TP [4]: 6.1 g/dL
gamma-GTP [4]: 1 IU/L
TERMINAL_BW [5]: 202 g
APTT [5]: 21.7 s
Bas [5]: 0%
Eos [5]: 0.8%
Fbg [5]: 252.6 mg/dL
Hb [5]: 14 g/dL
Ht [5]: 42.2%
Lym [5]: 76.8%
MCH [5]: 20.5 pg
MCHC [5]: 33.2%
MCV [5]: 61.8 fL
Mono [5]: 3.2%
Neu [5]: 18.2%
PT [5]: 14.1 s
Plat [5]: 134.4 x10_4/uL
RBC [5]: 683.2 x10_4/ul
Ret [5]: 7.3%
WBC [5]: 97.2 x10_2/uL
KIDNEY_L [5]: 0.9 g
KIDNEY_R [5]: 0.9 g
KIDNEY_TOTAL [5]: 1.7 g
ALP [5]: 1290.2 IU/L
ALT [5]: 41.6 IU/L
AST [5]: 67.6 IU/L
BUN [5]: 14 mg/dL
CRE [5]: 0.2 mg/dL
Cl [5]: 107.8 meq/L
DBIL [5]: 0.016 mg/dL
GLC [5]: 153 mg/dL
IP [5]: 6.1 mg/dL
K [5]: 4.1 meq/L
LDH [5]: 69.6 IU/L
Na [5]: 143.6 meq/L
PL [5]: 123 mg/dL
RALB [5]: 2.5 g/dL
TBIL [5]: 0.032 mg/dL
TC [5]: 67.2 mg/dL
TG [5]: 54 mg/dL
TP [5]: 5.3 g/dL
gamma-GTP [5]: 0.8 IU/L
TERMINAL_BW [6]: 238.1 g
TERMINAL_BW [7]: 309.6 g
TERMINAL_BW [8]: 388.3 g
APTT [6]: 16.8 s
Bas [6]: 0.4%
Eos [6]: 0.8%
Fbg [6]: 253.4 mg/dL
Hb [6]: 14.1 g/dL
Ht [6]: 42.6%
Lym [6]: 71.4%
MCH [6]: 20.2 pg
MCHC [6]: 33.1%
MCV [6]: 61 fL
Mono [6]: 2.8%
Neu [6]: 23.8%
PT [6]: 14.2 s
Plat [6]: 142.6 x10_4/uL
RBC [6]: 701.2 x10_4/ul
Ret [6]: 5.9%
WBC [6]: 121.8 x10_2/uL
APTT [7]: 21.1 s
Bas [7]: 0.4%
Eos [7]: 0.6%
Fbg [7]: 267.4 mg/dL
Hb [7]: 14.3 g/dL
Ht [7]: 42.8%
Lym [7]: 73.8%
MCH [7]: 20.6 pg
MCHC [7]: 33.5%
MCV [7]: 61.4 fL
Mono [7]: 3%
Neu [7]: 21.4%
PT [7]: 13.8 s
Plat [7]: 120.3 x10_4/uL
RBC [7]: 697.2 x10_4/ul
Ret [7]: 5.8%
WBC [7]: 117.1 x10_2/uL
APTT [8]: 21.7 s
Bas [8]: 0%
Eos [8]: 0.8%
Fbg [8]: 252.6 mg/dL
Hb [8]: 14 g/dL
Ht [8]: 42.2%
Lym [8]: 76.8%
MCH [8]: 20.5 pg
MCHC [8]: 33.2%
MCV [8]: 61.8 fL
Mono [8]: 3.2%
Neu [8]: 18.2%
PT [8]: 14.1 s
Plat [8]: 134.4 x10_4/uL
RBC [8]: 683.2 x10_4/ul
Ret [8]: 7.3%
WBC [8]: 97.2 x10_2/uL
KIDNEY_L [6]: 1 g
KIDNEY_R [6]: 0.9 g
KIDNEY_TOTAL [6]: 1.9 g
KIDNEY_L [7]: 1.2 g
KIDNEY_R [7]: 1.2 g
KIDNEY_TOTAL [7]: 2.4 g
KIDNEY_L [8]: 1.4 g
KIDNEY_R [8]: 1.3 g
KIDNEY_TOTAL [8]: 2.7 g
LIVER [6]: 12.1 g
LIVER [7]: 15.5 g
LIVER [8]: 17.5 g
ALP [6]: 1072.4 IU/L
ALT [6]: 40.4 IU/L
AST [6]: 68.2 IU/L
BUN [6]: 15 mg/dL
CRE [6]: 0.2 mg/dL
Cl [6]: 105.8 meq/L
DBIL [6]: 0.016 mg/dL
GLC [6]: 155.6 mg/dL
IP [6]: 6.4 mg/dL
K [6]: 3.9 meq/L
LDH [6]: 86 IU/L
Na [6]: 144.2 meq/L
PL [6]: 129 mg/dL
RALB [6]: 2.7 g/dL
TBIL [6]: 0.028 mg/dL
TC [6]: 68.8 mg/dL
TG [6]: 70.6 mg/dL
TP [6]: 5.7 g/dL
gamma-GTP [6]: 1 IU/L
ALP [7]: 1620.8 IU/L
ALT [7]: 41.6 IU/L
AST [7]: 66.6 IU/L
BUN [7]: 18.6 mg/dL
CRE [7]: 0.2 mg/dL
Ca [7]: 11 mg/dL
Cl [7]: 104.2 meq/L
DBIL [7]: 0.012 mg/dL
GLC [7]: 172.8 mg/dL
IP [7]: 7.3 mg/dL
K [7]: 4 meq/L
LDH [7]: 51 IU/L
Na [7]: 143.4 meq/L
PL [7]: 161 mg/dL
RALB [7]: 2.8 g/dL
TBIL [7]: 0.018 mg/dL
TC [7]: 84.2 mg/dL
TG [7]: 101.8 mg/dL
TP [7]: 5.9 g/dL
gamma-GTP [7]: 1 IU/L
ALP [8]: 975.4 IU/L
ALT [8]: 40.2 IU/L
AST [8]: 64.4 IU/L
BUN [8]: 18.2 mg/dL
CRE [8]: 0.3 mg/dL
Ca [8]: 10.3 mg/dL
Cl [8]: 106.6 meq/L
DBIL [8]: 0.012 mg/dL
GLC [8]: 162.8 mg/dL
IP [8]: 5.8 mg/dL
K [8]: 3.7 meq/L
LDH [8]: 62.8 IU/L
Na [8]: 144.4 meq/L
PL [8]: 144 mg/dL
RALB [8]: 2.7 g/dL
TBIL [8]: 0.028 mg/dL
TC [8]: 73.6 mg/dL
TG [8]: 115.4 mg/dL
TP [8]: 6 g/dL
gamma-GTP [8]: 1 IU/L
